Tested on: Pu22T14T23 (DNA, G4, none (G-to-T mutations at positions 14 and 23)) TGAGGGTGGGTAGGGTGGGTAA
Test: CD melting at 262 nm
Conditions: K+ (20 mM KCl); 5 mM phosphate pH 7.0; 1 µM DNA, 3 µM ligand; Tm 77.4 to 80.6

ΔTm | Structure (SMILES)
+3.2 °C | CN(C)CCNC(=O)c1cccn2c(=O)c3cc4ccccc4cc3nc12
+3.2 °C | CN(C)CCNC(=O)c1cccn2c(=O)c3sc4ccccc4c3nc12

Source: paper PMC6801708 (2019)
